Residue numbers refer to the chain shown, from its start. In names and notes the source's numbering stands. Entries after “also recorded” stand apart in the source; their conditions may differ. Primed or numbered codes have the meaning given here. No end group written: not given here. *: point of attachment. Biotin = O=C1N[C@H]2[C@H](CS[C@H]2CCCCC(=O)*)N1; Biotin′ = not defined here
B1: E148D: VEGF-DΔNΔC variant with mutation E148D (protein)
chain: DYKDDDDKFYDIETLKVIDEEWQRTQCSPRETCVEVASELGKSTNTFFKPPCVNVFRCGGCCNDESLICMNTSTSYISKQLFEISVPLTSVPELVPVKVANHTGCKCLPTAPRHPYS
B2: N147Q: VEGF-DΔNΔC variant with mutation N147Q (protein)
chain: B1 chain with N63Q, D64E
B3: S150G: VEGF-DΔNΔC variant with mutation S150G (protein)
chain: B1 chain with D64E, S66G
B4: L151V: VEGF-DΔNΔC variant with mutation L151V (protein)
chain: B1 chain with D64E, L67V
B5: E149D: VEGF-DΔNΔC variant with mutation E149D (protein)
chain: B1 chain with D64E, E65D
B6: S150T: VEGF-DΔNΔC variant with mutation S150T (protein)
chain: B1 chain with D64E, S66T

Each molecule was assayed on VEGF-D neutralizing monoclonal antibody mAb 4A5 (VDnmAb) (assay: ELISA of biotinylated synthetic peptides on streptavidin plates for VDnmAb binding). Settings: 2nd peptide library; 10 pmol peptide; VDnmAb 2 μg/ml; signal more than two-fold greater than background considered positive.
Excerpt: Peptides. A series of synthetic 15-mer peptides (peptides 1 to 35, SEQ ID NOs: 4 to 38 in FIG. 4B, which overlap each other by 12 amino acids) were synthesized (Mimotopes Pty Ltd, Melbourne, Australia). The peptides encompassed the VHD of human VEGF-D (SEQ ID NO: 3, FIG. 4A). Peptide 36 (SEQ ID NO: 39) represented an artificial sequence including a FLAG tag as a positive control for a commercial anti-FLAG mAb (M2; Sigma) that was used as control for non-specific binding to peptides 1 to 35 (SEQ ID NOs: 4 to 38). Biotin was included at the N-terminal of each peptide during synthesis, except that peptide 1 (SEQ ID NO: 4, representing the N-terminal of the VHD) has biotin at the C-terminal. The four-amino acid linker “SGSG” was introduced between the N-terminal of each peptide sequence and biotin to provide more flexibility to peptides after immobilization on streptavidin plates, except peptide 1 (SEQ ID NO: 4) that included the C-terminal linker “GSG”.
ELISA. Reacti-Bind streptavidin high-binding-capacity coated plates (Pierce) were coated with 10 pmol of each peptide in PBS, blocked with 5% milk in PBS-0.1% Tween 20, and incubated with 100 μl of VEGF-D neutralizing monoclonal antibody mAb 4A5 (referred to herein as VDnmAb) or M2 at 2 μg/ml for 1 h at room temperature. Bound mAb was detected with goat anti-mouse IgG coupled with HRP. ABTS was used as the substrate, and the absorbance was read at 405 nm in a multiwell plate reader.
In this 2nd peptide library, biotin was included at the N-terminal of each peptide, and the four-amino acid linker “SGSG” was introduced between each peptide sequence and the biotin residue to provide more flexibility to peptides after immobilization on streptavidin plates. ELISA-based analysis of the 2nd peptide library was carried out as for the 1st peptide library.
Peptide 67 (SEQ ID NO: 141, the same as peptide 36, SEQ ID NO: 39 from the 1st library) and peptide 68 (SEQ ID NO: 142), both containing the FLAG tag, were used as controls. In this 3rd peptide library, biotin was included at the N-terminal of each peptide except peptides 6, 12 and 14 (SEQ ID NOs: 80, 86 and 88) which have C-terminal biotin residues. To provide more flexibility to peptides after immobilization on streptavidin plates, an amino acid linker was introduced between biotin residues and the peptide sequence: “SGSG” for N-terminal biotin; “SGS” for C-terminal biotin. ELISA-based analysis of the 3rd peptide library was carried out as for the 1st peptide library, described in Example 1.

Molecule | VDnmAb binding to peptide (ELISA signal, absorbance at 405 nm)
VSLLRCTGCCGDENL (Biotin-SGSGVSLLRCTGCCGDENL; not fully specified; cysteine pairing not given here) [peptide 35 (SEQ ID NO: 74), residues 78 to 92 of PlGF, biotin and linker] | did not bind the antibody
peptide 27 (SEQ ID NO: 66): 2nd library: mutation of two of the cysteine residues to serine (SGSGVNVFRSGGCSNEESL) | more effect
peptide 23 (SEQ ID NO: 62): 2nd library: single mutation of cysteine in the binding region, C145S (SGSGVNVFRCGGSCNEESL) | very minor or no effect on VDnmAb binding
VPLMRCGGCCNDEGL (Biotin-SGSGVPLMRCGGCCNDEGL; not fully specified; cysteine pairing not given here) [peptide 33 (SEQ ID NO: 72), residues 78 to 92 of VEGF-A, biotin and linker] | did not bind the antibody
peptide 22 (SEQ ID NO: 61): 2nd library: single mutation of cysteine in the binding region, C146S (SGSGVNVFRCGGCSNEESL) | very minor or no effect on VDnmAb binding
VSVYRCGGCCNSEGL (Biotin-SGSGVSVYRCGGCCNSEGL; not fully specified; cysteine pairing not given here) [peptide 32 (SEQ ID NO: 71), residues 157 to 171 of human VEGF-C, biotin and linker] | did not bind the antibody
VTVQRCGGCCPDDGL (Biotin-SGSGVTVQRCGGCCPDDGL; not fully specified; cysteine pairing not given here) [peptide 34 (SEQ ID NO: 73), residues 73 to 87 of VEGF-B, biotin and linker] | did not bind the antibody

Same assay, conditions: 3rd peptide library; 10 pmol peptide; VDnmAb 2 μg/ml; signal more than two-fold over background considered positive

Molecule | VDnmAb binding to peptide (ELISA signal, absorbance at 405 nm)
FRCGGCCNEESL [peptide 12 (SEQ ID NO: 86)] (FRCGGCCNEESLSGS-{Biotin′}; cysteine pairing not given here) | decreases in VDnmAb binding
peptide 22 (SEQ ID NO: 96): 3rd library: deletion of R141 (SGSGVFCGGCCNEESL) | little or no effect on VDnmAb binding
peptide 9 (SEQ ID NO: 83): 3rd library: mutation V139L (SGSGLFRCGGCCNEESL) | little or no effect on VDnmAb binding
RCGGCCNEESL [peptide 13 (SEQ ID NO: 87)] (Biotin-SGSGRCGGCCNEESL; cysteine pairing not given here) | the strongest
GGCCNEESL (SGSGGGCCNEESL) [peptide 16 (SEQ ID NO: 90)] | positive
peptide 21 (SEQ ID NO: 95): 3rd library: mutation R141A (SGSGVFACGGCCNEESL) | little or no effect on VDnmAb binding
peptide 59 (SEQ ID NO: 133): 3rd library: simultaneous changes of most of residues 142 to 146 to alanine (SGSGNVFAAGAAANEESL) | loss, but not complete loss, of binding
peptide 32 (SEQ ID NO: 106): 3rd library: double mutation E148A/E149A (SGSGVFRCGGCCNAASL) | loss, even complete loss, of VDnmAb binding
peptide 29 (SEQ ID NO: 103): 3rd library: mutation E149D (SGSGVFRCGGCCNEDSL) | loss, even complete loss, of VDnmAb binding
peptide 10 (SEQ ID NO: 84): 3rd library: mutation V139A (SGSGAFRCGGCCNEESL) | little or no effect on VDnmAb binding
peptide 8 (SEQ ID NO: 82): 3rd library: mutation of residue 151 to alanine (SGSGVFRCGGCCNEESA) | decreased VDnmAb binding
peptide 23 (SEQ ID NO: 97): 3rd library: mutation N147Q (SGSGVFRCGGCCQEESL) | loss, even complete loss, of VDnmAb binding
CGGCCNEESL (SGSGCGGCCNEESL) [peptide 15 (SEQ ID NO: 89)] | positive
VFRCGGCCNEESL (VFRCGGCCNEESLSGS-{Biotin′}; cysteine pairing not given here) [peptide 6 (SEQ ID NO: 80)] | decreases in VDnmAb binding

These molecules were tested on VDnmAb (assay: Western blot of conditioned media containing VEGF-DΔNΔC variants probed with VDnmAb). Settings: conditioned media of 293-F cells; in comparison to VEGF-DΔNΔC.
Format: binding
Excerpt: Site-directed mutagenesis. DNA encoding VEGF-DΔNΔC, a form of mature human VEGF-D tagged at the N-terminus with the FLAG octapeptide (FIG. 11; SEQ ID NO: 145), was subjected to site-directed mutagenesis by PCR to generate VEGF-DΔNΔC variants. Mutations were introduced by amplification with the following primers: N147Q with 5'-[…] NO: 146) and 5'-[…] with 5'-[…] NO: 148) and 5'-[…] with 5'-[…] NO: 150) and 5'-[…] with 5'-[…] NO: 152) and 5'-[…] with 5'-[…] NO: 154) and 5'-[…] with 5'-[…] NO: 156) and 5'-[…] with 5'-[…] NO: 158) and 5'-[…] NO: 159) (FIG. 12). The desired mutations, as well as the absence of any unwanted mutations, in the resulting DNA fragments were confirmed by nucleotide sequencing. Expression of VEGF-DΔNΔC variants. Plasmids containing DNA encoding VEGF-DΔNΔC or its variants were used for transient transfection of 293-F cells with the FreeStyle MAX 293 Expression System according to manufacturer's instructions (Invitrogen). Cells expressing each variant were cultured in serum-free medium, and 30 ml of conditioned media was collected 7 days post-transfection and used for analysis. Western Blot Analysis. Conditioned media containing different variants of VEGF-DΔNΔC were resolved by SDS-PAGE, transferred to nitrocellulose membrane, probed with M2 anti-FLAG or VDnmAb antibodies labeled with IRDye 800CW according to manufacturer's instructions (LI-COR), and detected with an Odyssey Infrared Imaging System (LI-COR).

Molecule | VDnmAb binding to VEGF-DΔNΔC variant in Western blot
B1 | complete loss of VDnmAb binding
B2 | significant decrease in the amount of VDnmAb bound
B3 | significantly affected VDnmAb binding; also recorded: significantly affected, but did not eliminate, binding
B4 | dramatic decrease in the amount of VDnmAb bound; also recorded: significantly affected VDnmAb binding
B5 | dramatic decrease in the amount of VDnmAb bound
B6 | significant decrease in the amount of VDnmAb bound

Source: patent US20110305703A1, “ISOLATED VEGF-C AND VEGF-D PEPTIDES AND USES THEREOF” (Vegenics Pty Limited, priority 2008, published 2011)
